Data on 3 compounds can be found in ChEMBL document CHEMBL3351387, “Bioisosteric replacement of an acylureido moiety attached to an indolin-2-one scaffold with a malonamido or a 2/4-pyridinoylamido moiety produces a selectively potent Aurora-B inhibitor” (Eur J Med Chem, 2014).

In one data set the test system is HepG2. Briefly: Cytotoxicity against human HepG2 cells by SRB assay. It counts as cell-based. On the technique in general: The SRB assay estimates cell density from bound dye.
Data set [1] deals with Vascular endothelial growth factor receptor 2 (Homo sapiens, UniProt P35968). Briefly: Inhibition of VEGFR2 (unknown origin) using poly[Glu:Tyr] substrate by radioisotope-based P81 filter-binding assay.
In another data set the target is Aurora kinase B (Homo sapiens, UniProt Q96GD4). Briefly: Inhibition of Aurora B (unknown origin) using H-LRRASLG substrate by radioisotope-based P81 filter-binding assay.
Sequence of Aurora kinase B (Q96GD4 whole entry): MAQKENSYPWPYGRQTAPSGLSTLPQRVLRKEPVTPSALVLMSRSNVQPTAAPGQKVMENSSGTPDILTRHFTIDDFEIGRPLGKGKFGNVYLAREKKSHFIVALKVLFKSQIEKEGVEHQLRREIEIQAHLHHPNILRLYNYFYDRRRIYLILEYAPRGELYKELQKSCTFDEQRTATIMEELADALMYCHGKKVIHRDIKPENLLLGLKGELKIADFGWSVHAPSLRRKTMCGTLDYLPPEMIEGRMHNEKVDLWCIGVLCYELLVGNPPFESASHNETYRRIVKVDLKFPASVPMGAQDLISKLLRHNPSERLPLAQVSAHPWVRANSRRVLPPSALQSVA
The test system of data set [2] is A549. Briefly: Cytotoxicity against human A549 cells by SRB assay. The data set is classed as cell-based.
Data set [3] has as its target Hepatocyte growth factor receptor (Homo sapiens, UniProt P08581). Briefly: Inhibition of c-Met (unknown origin) using KKKSPGEYVNIEFG substrate by radioisotope-based P81 filter-binding assay.
Data set [4] addresses Platelet-derived growth factor receptor beta (Homo sapiens, UniProt P09619). Briefly: Inhibition of PDGFRbeta (unknown origin) using poly[Glu:Tyr] (4:1) substrate by radioisotope-based P81 filter-binding assay.
In data set [5] the target is Platelet-derived growth factor receptor alpha (Homo sapiens, UniProt P16234). Briefly: Inhibition of PDGFRalpha (unknown origin) using poly[Glu:Tyr] (4:1) substrate by radioisotope-based P81 filter-binding assay.
Sequence of Platelet-derived growth factor receptor alpha (P16234 whole entry): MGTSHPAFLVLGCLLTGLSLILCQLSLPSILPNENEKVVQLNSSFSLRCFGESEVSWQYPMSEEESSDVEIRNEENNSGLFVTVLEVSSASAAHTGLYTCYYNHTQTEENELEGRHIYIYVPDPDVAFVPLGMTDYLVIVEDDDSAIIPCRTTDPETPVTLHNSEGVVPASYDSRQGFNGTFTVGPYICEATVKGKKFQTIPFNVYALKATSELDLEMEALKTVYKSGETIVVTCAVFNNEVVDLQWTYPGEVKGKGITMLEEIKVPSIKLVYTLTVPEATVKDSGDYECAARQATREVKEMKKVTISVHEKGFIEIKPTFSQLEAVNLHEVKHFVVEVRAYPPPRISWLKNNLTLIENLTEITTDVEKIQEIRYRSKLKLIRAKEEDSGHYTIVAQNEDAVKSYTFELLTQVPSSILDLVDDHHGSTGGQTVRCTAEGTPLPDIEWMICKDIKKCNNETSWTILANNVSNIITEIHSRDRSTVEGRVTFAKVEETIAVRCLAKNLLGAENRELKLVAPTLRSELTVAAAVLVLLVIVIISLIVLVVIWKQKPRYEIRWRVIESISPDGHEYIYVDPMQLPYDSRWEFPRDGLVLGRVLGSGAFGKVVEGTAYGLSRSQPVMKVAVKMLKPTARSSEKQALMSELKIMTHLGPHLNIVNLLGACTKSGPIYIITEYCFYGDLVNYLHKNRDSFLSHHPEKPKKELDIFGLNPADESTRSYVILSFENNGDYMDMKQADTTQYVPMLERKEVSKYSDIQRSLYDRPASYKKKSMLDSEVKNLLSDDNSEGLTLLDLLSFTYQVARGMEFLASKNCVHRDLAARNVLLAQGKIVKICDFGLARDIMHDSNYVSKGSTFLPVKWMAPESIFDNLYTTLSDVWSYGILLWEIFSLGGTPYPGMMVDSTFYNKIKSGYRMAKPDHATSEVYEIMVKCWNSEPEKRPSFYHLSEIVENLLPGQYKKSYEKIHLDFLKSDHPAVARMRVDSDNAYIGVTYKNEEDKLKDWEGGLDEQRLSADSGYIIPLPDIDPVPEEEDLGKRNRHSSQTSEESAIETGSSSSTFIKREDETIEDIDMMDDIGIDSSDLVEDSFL
Data set [6] addresses T1, Receptor-type tyrosine-protein kinase FLT3 (Homo sapiens, UniProt P36888).
T1 sequence (P36888 whole entry): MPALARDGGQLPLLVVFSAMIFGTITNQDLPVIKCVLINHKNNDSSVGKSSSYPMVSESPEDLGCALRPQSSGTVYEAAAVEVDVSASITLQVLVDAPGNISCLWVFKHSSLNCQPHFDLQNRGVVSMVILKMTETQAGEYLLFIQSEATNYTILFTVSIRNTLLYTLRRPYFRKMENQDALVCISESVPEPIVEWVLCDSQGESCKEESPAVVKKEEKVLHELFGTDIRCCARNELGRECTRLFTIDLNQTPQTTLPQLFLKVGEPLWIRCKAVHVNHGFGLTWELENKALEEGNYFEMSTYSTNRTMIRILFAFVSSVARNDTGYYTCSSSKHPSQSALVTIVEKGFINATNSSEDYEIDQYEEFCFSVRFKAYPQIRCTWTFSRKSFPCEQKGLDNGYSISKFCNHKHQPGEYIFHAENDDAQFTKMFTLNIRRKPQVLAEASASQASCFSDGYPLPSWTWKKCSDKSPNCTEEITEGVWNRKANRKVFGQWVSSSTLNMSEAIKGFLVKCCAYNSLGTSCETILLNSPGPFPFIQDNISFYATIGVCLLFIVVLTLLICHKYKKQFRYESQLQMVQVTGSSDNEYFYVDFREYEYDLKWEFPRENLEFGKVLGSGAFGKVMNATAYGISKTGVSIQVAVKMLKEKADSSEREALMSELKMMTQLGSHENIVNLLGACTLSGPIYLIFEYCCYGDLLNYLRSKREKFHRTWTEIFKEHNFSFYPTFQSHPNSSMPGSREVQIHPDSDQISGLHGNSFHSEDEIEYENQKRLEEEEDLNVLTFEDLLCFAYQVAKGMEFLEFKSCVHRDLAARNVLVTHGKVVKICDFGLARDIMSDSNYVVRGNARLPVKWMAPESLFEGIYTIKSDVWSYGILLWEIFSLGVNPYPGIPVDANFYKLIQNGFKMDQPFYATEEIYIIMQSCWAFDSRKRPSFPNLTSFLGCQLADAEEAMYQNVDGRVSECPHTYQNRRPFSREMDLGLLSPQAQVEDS
Briefly: Inhibition of Flt3 (unknown origin) using EAIYAAPFAKKK substrate by radioisotope-based P81 filter-binding assay.

The subject of another data set is Rattus norvegicus. Briefly: AUC (0 to 24 hrs) in rat plasma at 2 mg/kg, iv after 24 hrs by LC-ESI-MS/MS method. It counts as ADME, organism-based. On the set-up: time < 24 hr, dose 2 mg/kg, route intravenous. The following applies: in vivo.
A short description of data set [7]: Volume of distribution at steady state in rat at 2 mg/kg, iv after 24 hrs by LC-ESI-MS/MS method. It counts as ADME, organism-based. On the set-up: dose 2 mg/kg, route intravenous. The settings on record: in vivo, read-out: Vdss.
Data set [8] is described as follows: Clearance in rat at 2 mg/kg, iv after 24 hrs by LC-ESI-MS/MS method. It counts as ADME, organism-based. On the set-up: dose 2 mg/kg, route intravenous. The following applies: in vivo.
Data set [9] in a line: Plasma concentration rat at 2 mg/kg, iv after 5 mins by LC-ESI-MS/MS method. It counts as ADME, organism-based. On the set-up: dose 2 mg/kg, route intravenous.
The nature of data set [10]: Antitumor activity against human HuH7 cells xenografted in iv dosed SCID mouse assessed as inhibition of tumor growth at 5 mg/kg, iv qd for 14 days measured on day 9. The settings on record: Huh-7, iv. (In general: A xenograft is tissue or cells of one species grown in another, often human tumour cells in immunodeficient mice.)
Another data set relates to Vero. Briefly: Cytotoxicity against african green monkey Vero cells. The data set is classed as cell-based. The following applies: chlorocebus sabaeus.
Data set [11] concerns A549. Briefly: Antimigratory activity against human A549 cells assessed as inhibition of cell migration after 8 to 16 hrs by scratch wound model assay.
Data set [12] in a line: Half life in rat plasma at 2 mg/kg, iv after 24 hrs by LC-ESI-MS/MS method. It counts as ADME, organism-based. Details: dose 2 mg/kg, route intravenous.
The target of a further data set is Cytochrome P450 2C9 (Homo sapiens, UniProt P11712). Briefly: Inhibition of CYP2C9 (unknown origin) using Vivid OOMR substrate. The data set is classed as ADME.
Sequence of Cytochrome P450 2C9 (P11712 whole entry): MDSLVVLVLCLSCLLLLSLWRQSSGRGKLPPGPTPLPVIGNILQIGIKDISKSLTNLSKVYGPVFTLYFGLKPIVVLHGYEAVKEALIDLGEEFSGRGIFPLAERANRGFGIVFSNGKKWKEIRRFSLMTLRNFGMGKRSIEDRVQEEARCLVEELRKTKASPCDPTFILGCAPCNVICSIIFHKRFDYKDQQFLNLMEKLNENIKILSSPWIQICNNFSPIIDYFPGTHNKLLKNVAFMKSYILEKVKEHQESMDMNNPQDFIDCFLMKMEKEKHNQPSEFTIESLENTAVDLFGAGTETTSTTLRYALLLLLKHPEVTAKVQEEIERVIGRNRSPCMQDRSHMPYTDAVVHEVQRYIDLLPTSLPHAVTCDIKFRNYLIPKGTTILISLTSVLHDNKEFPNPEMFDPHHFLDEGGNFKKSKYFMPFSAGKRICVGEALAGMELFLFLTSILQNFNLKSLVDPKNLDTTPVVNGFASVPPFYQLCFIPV
Data set [13] in a line: Antitumor activity against human HuH7 cells xenografted in po dosed SCID mouse assessed as inhibition of tumor growth at 2.5 mg/kg, iv qd measured on day 14. The following applies: Huh-7, 336 h. The data set is classed as functional.
The target of a further data set is Cytochrome P450 2C19 (Homo sapiens, UniProt P33261). Briefly: Inhibition of CYP2C19 (unknown origin) using 3-Cyano-7-ethoxycoumarin substrate. The data set is classed as ADME.
For a further data set, the target named is Cytochrome P450 3A4 (Homo sapiens, UniProt P08684). Briefly: Inhibition of CYP3A4 (unknown origin) using Vivid OOMR substrate. The data set is classed as ADME.
Sequence of Cytochrome P450 3A4 (P08684 whole entry): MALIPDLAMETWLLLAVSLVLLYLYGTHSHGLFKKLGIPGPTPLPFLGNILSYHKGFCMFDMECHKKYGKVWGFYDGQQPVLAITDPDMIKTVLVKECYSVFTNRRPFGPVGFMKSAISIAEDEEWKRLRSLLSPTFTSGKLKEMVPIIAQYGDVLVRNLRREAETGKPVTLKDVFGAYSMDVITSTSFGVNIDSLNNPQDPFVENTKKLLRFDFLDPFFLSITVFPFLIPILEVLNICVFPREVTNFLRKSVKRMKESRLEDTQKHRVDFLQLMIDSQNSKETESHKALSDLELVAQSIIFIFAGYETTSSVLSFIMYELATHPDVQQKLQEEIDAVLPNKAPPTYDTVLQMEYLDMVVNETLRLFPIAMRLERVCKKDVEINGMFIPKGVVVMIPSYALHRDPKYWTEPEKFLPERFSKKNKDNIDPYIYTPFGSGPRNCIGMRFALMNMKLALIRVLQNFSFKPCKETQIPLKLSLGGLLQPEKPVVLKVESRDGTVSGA
Data set [14] can be described thus: Antitumor activity against human HuH7 cells xenografted in po dosed SCID mouse assessed as inhibition of tumor growth at 2.5 mg/kg, iv qd for 14 days measured on day 9. It counts as functional. The settings on record: Huh-7.
The nature of data set [15]: Plasma concentration rat at 2 mg/kg, iv after 24 hrs by LC-ESI-MS/MS method. The data set is classed as ADME, organism-based. On the set-up: dose 2 mg/kg, route intravenous.
The subject of data set [16] is A549. Briefly: Anti-invasive activity against human A549 cells assessed as inhibition of cell invasion by transwell invasion assay.
A further data set addresses T2, Aurora kinase C (Homo sapiens, UniProt Q9UQB9).
T2 sequence (Q9UQB9 whole entry): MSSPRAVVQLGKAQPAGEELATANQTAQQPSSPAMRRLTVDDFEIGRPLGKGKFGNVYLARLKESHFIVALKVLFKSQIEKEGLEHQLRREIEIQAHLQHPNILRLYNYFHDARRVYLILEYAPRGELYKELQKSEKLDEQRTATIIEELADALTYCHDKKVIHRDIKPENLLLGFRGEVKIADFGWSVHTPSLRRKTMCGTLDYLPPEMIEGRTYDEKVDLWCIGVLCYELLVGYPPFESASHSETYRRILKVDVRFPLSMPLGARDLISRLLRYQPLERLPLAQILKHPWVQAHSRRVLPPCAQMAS
Briefly: Inhibition of Aurora C (unknown origin) using H-LRRASLG substrate by radioisotope-based P81 filter-binding assay.

The target of another data set is T3, Aurora kinase A (Homo sapiens, UniProt O14965).
T3 sequence (O14965 whole entry): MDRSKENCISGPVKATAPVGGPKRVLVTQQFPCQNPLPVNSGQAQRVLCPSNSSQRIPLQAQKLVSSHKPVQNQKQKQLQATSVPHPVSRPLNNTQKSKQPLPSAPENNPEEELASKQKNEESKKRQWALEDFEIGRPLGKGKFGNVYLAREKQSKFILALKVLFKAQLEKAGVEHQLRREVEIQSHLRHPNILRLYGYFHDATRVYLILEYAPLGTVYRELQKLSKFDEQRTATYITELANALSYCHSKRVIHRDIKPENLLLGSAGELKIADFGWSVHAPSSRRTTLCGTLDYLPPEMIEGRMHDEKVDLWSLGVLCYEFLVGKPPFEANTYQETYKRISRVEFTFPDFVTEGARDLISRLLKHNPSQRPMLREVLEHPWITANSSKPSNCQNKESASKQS
Briefly: Inhibition of Aurora A (unknown origin) using H-LRRASLG substrate by radioisotope-based P81 filter-binding assay.

Sequence of Hepatocyte growth factor receptor (P08581 whole entry): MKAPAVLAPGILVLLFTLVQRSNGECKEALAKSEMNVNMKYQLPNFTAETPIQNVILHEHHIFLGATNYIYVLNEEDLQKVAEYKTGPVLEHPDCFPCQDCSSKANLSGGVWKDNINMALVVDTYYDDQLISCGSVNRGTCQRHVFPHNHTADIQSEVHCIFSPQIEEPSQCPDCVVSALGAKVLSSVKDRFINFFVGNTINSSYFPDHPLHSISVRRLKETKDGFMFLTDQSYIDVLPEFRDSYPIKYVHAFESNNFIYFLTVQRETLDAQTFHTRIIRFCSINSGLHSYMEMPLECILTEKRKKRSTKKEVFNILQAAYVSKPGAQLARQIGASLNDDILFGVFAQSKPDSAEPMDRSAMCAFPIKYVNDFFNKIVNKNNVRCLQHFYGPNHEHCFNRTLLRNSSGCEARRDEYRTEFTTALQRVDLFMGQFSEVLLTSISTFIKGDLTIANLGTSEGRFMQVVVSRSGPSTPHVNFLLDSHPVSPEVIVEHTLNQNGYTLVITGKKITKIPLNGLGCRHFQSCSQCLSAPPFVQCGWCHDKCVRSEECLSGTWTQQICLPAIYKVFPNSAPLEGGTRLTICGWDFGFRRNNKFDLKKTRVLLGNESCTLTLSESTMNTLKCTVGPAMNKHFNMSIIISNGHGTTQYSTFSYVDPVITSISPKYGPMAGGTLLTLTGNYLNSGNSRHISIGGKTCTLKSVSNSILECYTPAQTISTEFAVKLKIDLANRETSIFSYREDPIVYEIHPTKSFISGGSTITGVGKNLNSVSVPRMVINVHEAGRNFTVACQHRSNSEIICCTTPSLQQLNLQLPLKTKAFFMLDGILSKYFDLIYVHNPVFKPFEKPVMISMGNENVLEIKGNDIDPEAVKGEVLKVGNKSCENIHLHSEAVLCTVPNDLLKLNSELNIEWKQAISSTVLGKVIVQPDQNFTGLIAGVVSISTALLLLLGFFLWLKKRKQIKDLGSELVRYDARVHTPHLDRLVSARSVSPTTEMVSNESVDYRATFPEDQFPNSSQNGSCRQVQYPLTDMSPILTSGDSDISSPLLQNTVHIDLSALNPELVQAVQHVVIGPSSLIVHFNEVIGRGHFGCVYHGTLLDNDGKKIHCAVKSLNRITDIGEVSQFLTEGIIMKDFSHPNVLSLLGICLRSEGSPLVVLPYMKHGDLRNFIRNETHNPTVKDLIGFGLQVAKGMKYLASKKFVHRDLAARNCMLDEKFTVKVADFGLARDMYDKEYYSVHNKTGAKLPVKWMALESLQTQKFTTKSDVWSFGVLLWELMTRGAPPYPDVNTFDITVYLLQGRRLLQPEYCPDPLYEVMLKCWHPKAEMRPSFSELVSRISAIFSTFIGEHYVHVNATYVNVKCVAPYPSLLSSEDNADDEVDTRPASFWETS
Sequence of Platelet-derived growth factor receptor beta (P09619 whole entry): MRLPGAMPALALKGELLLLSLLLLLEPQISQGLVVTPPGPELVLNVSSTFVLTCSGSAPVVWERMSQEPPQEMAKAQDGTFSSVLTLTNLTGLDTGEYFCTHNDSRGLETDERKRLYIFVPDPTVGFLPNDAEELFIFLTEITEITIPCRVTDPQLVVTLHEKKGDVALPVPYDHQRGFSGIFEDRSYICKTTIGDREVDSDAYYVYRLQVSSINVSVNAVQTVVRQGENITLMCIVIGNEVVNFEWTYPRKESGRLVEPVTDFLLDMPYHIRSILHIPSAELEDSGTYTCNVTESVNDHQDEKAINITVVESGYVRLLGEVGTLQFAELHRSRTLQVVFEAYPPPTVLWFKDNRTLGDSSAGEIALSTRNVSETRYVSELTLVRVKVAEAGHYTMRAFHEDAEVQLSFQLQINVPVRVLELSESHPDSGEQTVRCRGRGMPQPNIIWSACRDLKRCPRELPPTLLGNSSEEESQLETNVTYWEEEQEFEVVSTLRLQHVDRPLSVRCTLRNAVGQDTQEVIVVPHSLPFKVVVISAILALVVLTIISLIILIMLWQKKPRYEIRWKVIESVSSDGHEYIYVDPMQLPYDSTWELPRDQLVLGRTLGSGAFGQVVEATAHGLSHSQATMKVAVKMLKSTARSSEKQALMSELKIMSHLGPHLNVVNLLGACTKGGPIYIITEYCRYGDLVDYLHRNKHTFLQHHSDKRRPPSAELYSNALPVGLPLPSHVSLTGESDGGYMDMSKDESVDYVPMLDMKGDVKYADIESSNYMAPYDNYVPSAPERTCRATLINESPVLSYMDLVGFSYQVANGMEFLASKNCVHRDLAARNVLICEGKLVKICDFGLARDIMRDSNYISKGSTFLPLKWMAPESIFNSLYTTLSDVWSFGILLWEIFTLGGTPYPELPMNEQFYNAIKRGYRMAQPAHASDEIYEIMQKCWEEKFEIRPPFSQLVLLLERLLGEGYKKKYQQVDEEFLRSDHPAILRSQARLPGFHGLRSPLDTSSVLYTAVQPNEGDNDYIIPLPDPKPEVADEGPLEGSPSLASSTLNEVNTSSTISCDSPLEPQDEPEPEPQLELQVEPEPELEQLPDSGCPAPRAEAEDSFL

A word on the IC50: it is the concentration that gives 50% inhibition. Turning to `COc1ccc(NC(=O)CC(=O)Nc2ccc3c(c2)NC(=O)/C3=C\c2[nH]c(C)c(C(=O)NCCN3CCCC3)c2C)cc1`, the IC50 in the data set on HepG2 came to 5.1 µM; in data set [1], 0.0207 µM; on Aurora kinase B, 0.093 µM; with A549 [2] it was 5.4 µM; in data set [3], 0.0106 µM; in [4] it was 0.00154 µM. In addition, the IC50 in [5] is less than 0.001 µM; in data set [6], 0.0021 µM.
As usually defined, the AUC is concentration integrated over time. As usually defined, the clearance is the volume of plasma or blood freed of the substance per unit of time. Usually inhibition in vivo stands for the relative decrease from the control value, in per cent. What is called half-life is how long it takes for the measured level to halve. For `O=C1Nc2cc(NC(=O)c3c[nH]cc(-c4ccccc4F)c3=O)ccc2/C1=C/c1ccc[nH]1`, the IC50 was 0.6 µM in the data set on HepG2; 4.1 µM with A549 [11]; 0.5 µM with A549 [2]; 0.04 µM at Cytochrome P450 2C9; 3.5 µM against Cytochrome P450 2C19; greater than 10 µM on Cytochrome P450 3A4. Moreover, the IC50 with A549 [16] worked out at 3.2 µM. In the data set with Rattus norvegicus, this compound gave an AUC of 3.66 µg·h/mL. Besides, the Vd in data set [7] is 9.34 L/kg. Further, the clearance in data set [8] was 0.565 L/h/kg. In addition, the concentration at 5 min in data set [9] stood at 4.79 µg/mL. Also, the inhibition in vivo at 5 mg/kg in data set [10] is 61%. Further, the Activity result with Vero was “Non-toxic”. The half-life in [12] is 11.8 h. For the same compound, the results for the inhibition in vivo at 2.5 mg/kg in [13] and in data set [14] were 38% and 56%, respectively. In data set [15], the concentration at 24 h was 0.01 µg/mL.
As for `COc1ccc(NC(=O)CC(=O)Nc2ccc3c(c2)NC(=O)/C3=C\c2[nH]c(C)c(C(=O)O)c2C)cc1`, the IC50 with HepG2 came out at 7.8 µM; on Aurora kinase C it was 0.153 µM; at Aurora kinase B, 0.0059 µM; on Aurora kinase A, 0.203 µM; in the data set with A549 [2], 5.4 µM; in data set [3], 0.0311 µM. Also, the IC50 in data set [4] is 0.0081 µM; in [5], less than 0.001 µM; in data set [6], 0.0064 µM.
